Source: patent US20240173432A1, “Compositions and Methods for Treatment of Myotonic Dystrophy Type 1 with CRISPR/SluCas9” (Vertex Pharmaceuticals Incorporated, priority 2021, published 2024)

Legend:
[1] = tested on: CAG foci in primary DM1 patient myoblasts; assay: Single-cut screening: CAG foci staining; type: cell-based, human; settings: single sgRNA; for % of CAG foci positive nuclei (DNA-PKi): DNA-PKi treated
In short: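 Primary DM1 patient myoblasts were PFA-fixed and hybridized with […] (1 ng/μL, 15 min at 80° C) in 30% formamide/2×SSC, followed by anti-MBNL1 immunostaining and Hoechst counterstain. CAG RNA foci were quantified by high-content confocal imaging after single-cut SuCas9 sgRNA editing.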

[2] = tested on: 3′ UTR of the human DMPK gene; assay: Single-cut screening: indel editing efficiency by Sanger sequencing and ICE analysis in primary DM1 patient myoblasts; type: cell-based; settings: vehicle-treated samples; for indel efficiency (Sanger sequencing and ICE analysis): single-cut, SluCas9 RNP, 72 hrs post nucleofection, wild-type allele; for Indel efficiency: single SluCas9 sgRNA RNP in primary DM1 patient myoblasts, Sanger sequencing and ICE analysis
In short: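 Indels were estimated by ICE from Sanger chromatograms of PCR amplicons covering the DMPK 3′ UTR wild-type allele, using only vehicle-treated samples; sgRNAs with R2<0.9 are flagged. Samples came from primary DM1 patient myoblasts (2 × 10^5) harvested 72 h after nucleofection with 30 pmol SluCas9 and 90 pmol single sgRNA RNP.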

Row | Substance | % of CAG foci positive nuclei (DNA-PKi) [1] | % of CAG foci positive nuclei (Vehicle) [1] | indel efficiency (Sanger sequencing and ICE analysis) [2] | Indel efficiency [2]
1 | ATGGGCAAACTGCAGGCCTGGG (listed as DNA, chemistry not fully specified) [SluD14] | 3.96% | 6.7% | high editing IN4DEL efficiency | 
2 | GCCCCGTTGGAAGACTGAGTGC (listed as DNA, chemistry not fully specified) [SluU08] | 1.61% | 2.21% | high editing IN4DEL efficiency | 87%
3 | gggcTCGAAGGGTCCTTGTAGC (as printed in the source, key not given here) [SluU64] | 2.58% | 1.23% | high editing IN4DEL efficiency | 59%
4 | ggggcTCGAAGGGTCCTTGTAG (as printed in the source, key not given here) [SluU63] | 5.49% | 3.29% | high editing IN4DEL efficiency | 
